Test results from patent US12540141B2, “Spiropyrrolidine derived antiviral agents” (priority 2020, dated 2026).

Molecular target: SARS-CoV-2 3CL-protease (Severe acute respiratory syndrome coronavirus 2, UniProt P0DTD1)
Assay: SARS-CoV-2 3C-Like (3CL) Protease Fluorescence Assay (FRET)
Type: biochemical
Details: SARS-CoV-2 3CL-protease 10 nM, 30 min preincubation at RT, substrate 40 μM

| Compound | IC50 [nM] |
| --- | --- |
| CC(C)C[C@@H](C(=O)N1C[C@]2(C[C@H]1C#N)C(=O)Nc1ccccc12)N(C)C(=O)c1ccc(-c2ccccc2)cc1 [Example 277] | 100 to 1000 |
| CC(C)C[C@@H](C(=O)N1C[C@]2(C[C@H]1C#N)C(=O)Nc1ccccc12)N(C)C(=O)c1cccc(Cl)c1 [Example 167] | < 100 |
| CN(C(=O)C1(c2ccccn2)CC1)[C@@H](CC(C)(C)F)C(=O)N1C[C@]2(C[C@H]1C#N)C(=O)Nc1ccc(Cl)cc12 [Example 478] | < 100 |
| CC(C)C[C@@H](C(=O)N1C[C@]2(C[C@H]1C#N)C(=O)Nc1ccccc12)N(C)C(=O)c1cc(F)c2nc(C3CC3)cn2c1 [Example 318] | < 100 |
| CC(C)C[C@@H](C(=O)N1C[C@]2(C[C@H]1C#N)C(=O)Nc1ccccc12)N(C)C(=O)c1ccc2cc(F)ccc2c1 [Example 222] | 100 to 1000 |
| CN(C(=O)c1cc2c(F)cc(F)cc2[nH]1)[C@@H](CC(C)(C)O)C(=O)N1C[C@]2(C[C@H]1C#N)C(=O)Nc1ccccc12 [Example 443] | 100 to 1000 |
| CC(C)C[C@@H](C(=O)N1C[C@]2(C[C@H]1C#N)C(=O)Nc1ccccc12)N(C)C(=O)c1ccc2nccc(Br)c2c1 [Example 274] | < 100 |
| CC(C)C[C@@H](C(=O)N1C[C@]2(C[C@H]1C#N)C(=O)Nc1ccccc12)N(C)C(=O)c1ccccc1-c1ccccc1 [Example 261] | 100 to 1000 |
| CC(C)C[C@@H](C(=O)N1C[C@]2(C[C@H]1C#N)C(=O)Nc1ccccc12)N(C)C(=O)c1cn(C2CCC2)nn1 [Example 365] | < 100 |
| CC(C)C[C@@H](C(=O)N1C[C@]2(C[C@H]1C#N)C(=O)Nc1ccccc12)N(C)C(=O)c1cc2cccnc2cc1F [Example 275] | < 100 |
| CC(C)C[C@@H](C(=O)N1C[C@]2(C[C@H]1C#N)C(=O)Nc1ccccc12)N(C)C(=O)[C@H](c1cn(C)nn1)C(C)C [Example 351] | < 100 |
| CC(C)C[C@@H](C(=O)N1C[C@]2(C[C@H]1C#N)C(=O)Nc1ccccc12)N(C)C(=O)CCNC(=O)c1ccc(F)cc1F [Example 368] | < 100 |
| CN(C(=O)C1(c2ccncc2)CC1)[C@@H](CC(C)(C)F)C(=O)N1C[C@]2(C[C@H]1C#N)C(=O)Nc1ccc(Cl)cc12 [Example 473, N—((S)-1-((3R,5′S)-5-chloro-5′-cyano-2-oxospiro[indoline-3,3′-pyrrolidin]-1′-yl)-4-fluoro-4-methyl-1-oxopentan-2-yl)-N-methyl-1-(pyridin-4-yl)cyclopropane-1-carboxamide] | < 100 |
| CC(C)C[C@@H](C(=O)N1C[C@]2(C[C@H]1C#N)C(=O)Nc1ccccc12)N(C)C(=O)c1cncc(C(F)(F)F)c1 [Example 195] | < 100 |
| CC(C)C[C@@H](C(=O)N1C[C@]2(C[C@H]1C#N)C(=O)Nc1ccccc12)N(C)C(=O)c1cnc2c(C(F)(F)F)cccc2c1 [Example 268] | 100 to 1000 |
| CC(C)C[C@@H](C(=O)N1C[C@]2(C[C@H]1C#N)C(=O)Nc1ccccc12)N(C)C(=O)c1cc(F)c2nc(C(F)F)cn2c1 [Example 341] | 100 to 1000 |
| CC(C)C[C@@H](C(=O)N1C[C@]2(C[C@H]1C#N)C(=O)Nc1ccccc12)N(C)C(=O)[C@H](c1cnn(C)c1)C(C)C [Example 349] | < 100 |
| CC(C)C[C@@H](C(=O)N1C[C@]2(C[C@H]1C#N)C(=O)Nc1ncccc12)N(C)C(=O)c1cc2c(F)cc(F)cc2[nH]1 [Example 549] | < 100 |
| N#C[C@@H]1C[C@@]2(CN1C(=O)[C@H](COCc1cnn[nH]1)NC(=O)c1cc3c(F)cc(F)cc3[nH]1)C(=O)Nc1ccccc12 [Example 129] | > 1000 |
| CN(C(=O)c1ccn(C2CC2)n1)[C@@H](Cc1ccccc1)C(=O)N1C[C@]2(C[C@H]1C#N)C(=O)Nc1ccccc12 [Example 361] | < 100 |
| CC(C)C[C@@H](C(=O)N1C[C@]2(C[C@H]1C#N)C(=O)Nc1ccccc12)N(C)C(=O)c1cc(F)c2nn(C)cc2c1 [Example 309] | < 100 |
| CC(C)C[C@@H](C(=O)N1C[C@]2(C[C@H]1C(=O)CO)C(=O)Nc1ccccc12)N(C)C(=O)c1cc2c(F)cc(F)c(F)c2[nH]1 [Example 158] | > 1000 |
| CN(C(=O)CCNc1nccs1)[C@@H](CC(C)(C)F)C(=O)N1C[C@]2(C[C@H]1C#N)C(=O)Nc1ccccc12 [Example 547] | < 100 |
| CC(C)C[C@@H](C(=O)N1C[C@]2(C[C@H]1C#N)C(=O)Nc1ccccc12)N(C)C(=O)NCc1ccccc1 [Example 433] | < 100 |
| CC(C)C[C@@H](C(=O)N1C[C@]2(C[C@H]1C#N)C(=O)Nc1ccccc12)N(C)C(=O)[C@@H](c1cn(C)nn1)C(C)C [Example 350] | < 100 |
| CC(C)C[C@@H](C(=O)N1C[C@]2(C[C@H]1C#N)C(=O)Nc1ccccc12)N(C)C(=O)c1ccc2cnccc2c1 [Example 216] | < 100 |
| CC(C)C[C@@H](C(=O)N1C[C@]2(C[C@H]1C#N)C(=O)Nc1ccccc12)N(C)C(=O)[C@@H](c1cnn(C)c1)C(C)C [Example 348] | < 100 |
| [2H]C([2H])([2H])N(C(=O)c1cn(C2CCC2)nn1)[C@@H](CCCC)C(=O)N1C[C@]2(C[C@H]1C#N)C(=O)Nc1ccccc12 [Example 392] | < 100 |

| Compound | IC50 [nM] |
| --- | --- |
| CC(C)(C)C[C@H](NC(=O)Nc1c(F)cccc1F)C(=O)N1C[C@]2(C[C@H]1C#N)C(=O)Nc1ccccc12 [Example 437] | 100 to 1000 |
| Cc1ccc2cc(C(=O)N(C)[C@@H](CC(C)(C)F)C(=O)N3C[C@]4(C[C@H]3C#N)C(=O)Nc3ccc(Cl)cc34)[nH]c2n1 [Example 471] | < 100 |
| CC(C)C[C@@H](C(=O)N1C[C@]2(C[C@H]1C#N)C(=O)Nc1ccccc12)N(C)C(=O)c1cc(OC2CC2)n2nc(C3CC3)c(C(=O)C(F)(F)F)c2c1 [Example 313] | 100 to 1000 |
| CC(C)C[C@@H](C(=O)N1C[C@]2(C[C@H]1C#N)C(=O)Nc1ccccc12)N(C)C(=O)c1cc2cc(C#N)ccc2[nH]1 [Example 327] | < 100 |
| CN(C(=O)c1cn(CC(F)(F)F)nn1)[C@@H](Cc1ccccc1)C(=O)N1C[C@]2(C[C@H]1C#N)C(=O)Nc1ccccc12 [Example 362] | < 100 |
| COc1cc(C(=O)N(C)[C@@H](CC(C)C)C(=O)N2C[C@]3(C[C@H]2C#N)C(=O)Nc2ccccc23)cc2cn(C3(C)CC3)nc12 [Example 319] | < 100 |
| CN(C(=O)c1cnn(C2CCCCC2)c1)[C@@H](CC1CC1)C(=O)N1C[C@]2(C[C@H]1C#N)C(=O)Nc1ccccc12 [Example 411] | < 100 |
| CC(C)C[C@H](NC(=O)O[C@@H](c1ccccc1)C(F)(F)F)C(=O)N1C[C@]2(C[C@H]1C#N)C(=O)Nc1ccc(F)cc12 [Example 527, (S)-2,2,2-trifluoro-1-phenylethyl ((S)-1-((3R,5′S)-5′-cyano-5-fluoro-2-oxospiro[indoline-3,3′-pyrrolidin]-1′-yl)-4-methyl-1-oxopentan-2-yl)carbamate] | < 100 |
| CC(C)C[C@H](NC(=O)c1cc2c(F)cccc2[nH]1)C(=O)N1C[C@]2(C[C@H]1C#N)C(=O)Nc1cc(Cl)ccc12 [Example 531] | < 100 |
| CC(C)C[C@@H](C(=O)N1C[C@]2(C[C@H]1C#N)C(=O)Nc1ccccc12)N(C)C(=O)c1ccc2ncccc2n1 [Example 303] | < 100 |
| COc1ccc(C(=O)N(C)[C@@H](CC(C)C)C(=O)N2C[C@]3(C[C@H]2C#N)C(=O)Nc2ccccc23)nc1 [Example 193] | 100 to 1000 |
| CC(C)C[C@@H](C(=O)N1C[C@]2(C[C@H]1C#N)C(=O)Nc1ccccc12)N(C)C(=O)c1c(F)ccc2ccncc12 [Example 299] | < 100 |
| CC(C)C[C@@H](C(=O)N1C[C@]2(C[C@H]1C#N)C(=O)Nc1ccccc12)N(C)C(=O)c1cccc2ncccc12 [Example 214] | < 100 |
| CC(C)C[C@@H](C(=O)N1C[C@]2(C[C@H]1C#N)C(=O)Nc1ccccc12)N(C)C(=O)c1cc2cccnc2cc1OC(F)F [Example 253] | < 100 |
| CC(C)C[C@@H](C(=O)N1C[C@]2(C[C@H]1C#N)C(=O)Nc1ccccc12)N(C)C(=O)c1cccc2cnccc12 [Example 215] | < 100 |
| N#C[C@@H]1C[C@@]2(CN1C(=O)[C@H](CC1CC1)NC(=O)OCc1c(F)cccc1F)C(=O)Nc1ccc(Cl)cc12 [Example 492, 2,6-difluorobenzyl ((S)-1-((3R,5′S)-5-chloro-5′-cyano-2-oxospiro[indoline-3,3′-pyrrolidin]-1′-yl)-3-cyclopropyl-1-oxopropan-2-yl)carbamate] | < 100 |
| Cc1ccc2cc(C(=O)N(C)[C@@H](CC(C)C)C(=O)N3C[C@]4(C[C@H]3C#N)C(=O)Nc3ccccc34)ccc2n1 [Example 234] | < 100 |
| CC(C)(C)C[C@H](NC(=O)c1cc(OC(F)(F)F)c2ncccc2c1)C(=O)N1C[C@]2(C[C@H]1C#N)C(=O)Nc1ccccc12 [Example 137] | < 100 |
| CC(C)C[C@@H](C(=O)N1C[C@]2(C[C@H]1C#N)C(=O)Nc1ccccc12)N(C)C(=O)c1ccc2nccnc2c1 [Example 297] | 100 to 1000 |
| CC(C)C[C@@H](C(=O)N1C[C@]2(C[C@H]1C#N)C(=O)Nc1ccc(-c3cnoc3)cc12)N(C)C(=O)c1cc2c(F)cc(F)cc2[nH]1 [Example 515] | < 100 |
| CC(C)C[C@@H](C(=O)N1C[C@]2(C[C@H]1C#N)C(=O)Nc1ccccc12)N(C)C(=O)c1cn(C)cn1 [Example 201] | 100 to 1000 |
| CN(C(=O)c1cc2c(F)cc(F)cc2[nH]1)[C@@H](CC(C)(C)F)C(=O)N1C[C@]2(C[C@H]1C#N)C(=O)Nc1ccc(Cl)cc12 [Example 455] | < 100 |
| CC(C)C[C@@H](C(=O)N1C[C@]2(C[C@H]1C#N)C(=O)Nc1ccccc12)N(C)C(=O)c1cn(-c2ccc(Cl)cc2)nn1 [Example 284] | < 100 |
| CC(C)C[C@@H](C(=O)N1C[C@]2(C[C@H]1C#N)C(=O)Nc1ccccc12)N(C)C(=O)c1cccc(-c2ccc(C(F)(F)F)cc2)c1 [Example 263] | 100 to 1000 |
| CC(C)C[C@@H](C(=O)N1C[C@]2(C[C@H]1C#N)C(=O)Nc1ccccc12)N(C)C(=O)c1ccc2ccsc2c1 [Example 246] | 100 to 1000 |
| CC(C)C[C@@H](C(=O)N1C[C@]2(C[C@H]1C#N)C(=O)Nc1ncccc12)N(C)C(=O)c1cc2c(F)cc(F)c(F)c2[nH]1 [Example 550] | < 100 |
| Cc1cnc2[nH]c(C(=O)N(C)[C@@H](CC3CC3)C(=O)N3C[C@]4(C[C@H]3C#N)C(=O)Nc3ccc(Cl)cc34)cc2c1 [Example 461] | < 100 |
